According to patent publication US5012004A, “Ether compounds and their production, and insecticidal and/or acaricidal compositions containing them” (priority 1987, dated 1991):
Read-outs that look alike come from different tables or passages of the source.

Assays:
Format in all cases: in vivo
[1] = system: eggs of diamondback moth (Plutella xylostella); assay: Ovicidal test: mortality of eggs of diamondback moth on dipped radish cotyledons (Test Example 1); settings: 72 h, read-out: Mortality (%) of the eggs
Excerpt: Seven days after sowing, adults of diamondback moth (Plutella xylostella) were released to cotyledons of three radishes for oviposition (about 15 eggs per 1 cotyledon). […] After air-drying, the seedlings were taken into a cup made of polyethylene at the bottom of which were placed a filter paper.

[2] = system: adults of brown rice planthopper (Nilaparvata lugens); assay: Mortality of adults of brown rice planthopper on dipped rice stems (Test Example 2); settings: 24 h, 200 fold dilution (ca. 500 ppm), one day thereafter, two replications
Excerpt: (§1) One of Compound Nos. 1 to 38 (10 parts), polyoxyethylene styrylphenyl ether (14 parts), calcium dodecylbenzenesulfonate (6 parts), xylene (35 parts) and dimethylformamide (35 parts) are well mixed to make an emulsifiable concentrate.
Stems of rice plants (about 12 cm in length) were dipped in a 200 fold dilution (ca. 500 ppm) of the emulsifiable concentrate prepared according to Formulation Example 2. After air-drying, the stems were taken into a test tube and 10 adults of brown rice planthopper (Nilaparvata lugens) were released therein.

[3] = system: last instar larvae of common mosquito (Culex pipiens pallens); assay: Emergence inhibition of last instar larvae of common mosquito (Test Example 3); settings: read-out: Rate of emergence inhibition (%)
Description: as §1
An emulsifiable concentrate prepared according to Formulation Example 2 was diluted with water to make a concentration of 3.5 ppm. The dilution (100 ml) was charged in a plastic cup (each 180 ml volume), and twenty last instar larvae of common mosquito (Culex pipiens pallens) were released therein. Feeding was continued until emergence of all larvae, and the rate of emergence inhibition was observed.
The rate of emergence inhibition was determined according to the following criteria:
Rate of emergence inhibition […]
b: less than 90% to not less than 80% inhibition c: less than 80% inhibition

[4] = system: female carmine spider mites (Tetranychus cinnabarinus); assay: Plant damage by female carmine spider mites on kidney bean, pot spray plus soil application (Example 4); settings: ca. 500 ppm, 15 ml spray per pot plus 2 ml to soil, eight days thereafter
Description: as §1
Adults of female carmine spider mites (Tetranychus cinnabarinus) were permitted to live on leaves (10 mites per leaf) of kidney bean seven days after sowing in the pots, and the mites were kept at 25° C. in a greenhouse. After 6 days, a 200 fold dilution (ca. 500 ppm) of the emulsifiable concentrate prepared according to Formulation Example 2 was sprayed over the pots placed on a turn table at a spray volume of 15 ml per pot, and also 2 ml of the dilution were applied to the soil in each pot. Eight days thereafter, the plant damage by the mites was observed and evaluated according to the following criteria:
______________________________________
-: no material damage to leaves
+: slight damage to leaves

[5] = 200 fold dilution (ca. 500 ppm), cotyledons dipped 30 seconds, three days thereafter, two replications
[6] = 3.5 ppm, twenty last instar larvae, until emergence

| Compound | mortality at 500 µg/mL [1, 5] [%] | mortality at 500 µg/mL [1] [%] | Plant damage [4] | other results |
| --- | --- | --- | --- | --- |
| FCCOc1ccc(C(F)F)cc1 [Compound No. 10, 1-difluoromethyl-4-(2-fluoroethoxy)benzene] | 100 |  |  |  |
| Cc1cccc(OCCF)c1 [compound 7] |  | 100 |  |  |
| FCCOc1ccccc1-c1ccccc1 [Compound No. 20, 1-(2-fluoroethoxy)-2-phenylbenzene] | 100 |  |  | mortality at 500 µg/mL [2]: 100% |
| FCCOc1ccc(-c2ccc(OCCF)cc2)cc1 [compound 12] |  | 100 |  |  |
| FCCOc1ccc(OCCF)cc1 [compound 11] |  | 100 | - ~ + | mortality at 500 µg/mL [2]: 100%; inhibition at 3.5 ppm [3]: > 90% |
| COc1cccc(OCCF)c1 [compound 5] |  | 100 |  |  |
| FCCOc1ccccc1Cl [Compound No. 3] |  | 100 |  | mortality at 500 µg/mL [2]: 100% |
| FCCOc1ccc(CBr)cc1 [compound 16] |  | 100 |  |  |
| CC(F)COc1ccc(Oc2ccccc2)cc1 (stereo not shown) [compound 27] | 100 |  |  | inhibition at 3.5 ppm [3, 6]: > 90% |
| FCCOc1ccc(Sc2ccc(OCCF)cc2)cc1 [compound 34] | 100 |  |  | inhibition at 3.5 ppm [3]: > 90% |
| FCCOc1ccc(OCc2ccccc2)cc1 [A, reference compound] |  |  |  | mortality at 500 µg/mL [2]: 0%; inhibition at 3.5 ppm [3]: 80 to 90% |
| CCC(F)COc1ccc(Oc2ccccc2)cc1 (stereo not shown) [compound 28] | 100 |  |  | inhibition at 3.5 ppm [3, 6]: > 90% |
| FCCOc1cccc(COc2ccc(Oc3ccccc3)cc2)c1 [compound 18] | 100 |  | - ~ + | inhibition at 3.5 ppm [3, 6]: > 90% |
| FCCOc1cccc(CBr)c1 [compound 15] |  | 100 |  |  |
| Cc1ccc(OCCF)cc1 [compound 8] |  | 100 |  |  |
| CC(C)(c1ccccc1)c1ccc(OCCF)cc1 [compound 31] | 100 |  |  |  |
| FCCOc1ccc(Oc2cc(F)cc(F)c2)cc1 [compound 24] | 100 |  |  | inhibition at 3.5 ppm [3]: > 90% |
| FCCCCOc1ccc(Oc2ccccc2)cc1 [compound 25] | 100 |  |  | inhibition at 3.5 ppm [3, 6]: > 90% |
| FCCOc1ccc(Cc2ccccc2)cc1 [compound 30] | 100 |  | - ~ + | mortality at 500 µg/mL [2]: 100% |
| FCCOc1ccccc1COc1ccc(Oc2ccccc2)cc1 [compound 17] | 100 |  | - |  |

| Compound | mortality at 500 µg/mL [1, 5] [%] | mortality at 500 µg/mL [1] [%] | Plant damage [4] | other results |
| --- | --- | --- | --- | --- |
| FCCOc1ccccc1CBr [compound 14] |  | 100 |  |  |
| FCCOc1ccc(Oc2cccc(F)c2)cc1 [Compound No. 23, 1-(2-fluoroethoxy)-4-(3-fluorophenoxy)benzene] | 100 |  |  | mortality at 500 µg/mL [2]: 100%; inhibition at 3.5 ppm [3]: > 90% |
| FCCOc1cccc(-c2ccccc2)c1 [compound 21] | 100 |  | - ~ + | inhibition at 3.5 ppm [3]: > 90% |
| FCCOc1ccc(Oc2ccccc2)cc1 [Compound No. 22, 1-(2-fluoroethoxy)-4-phenoxybenzene] | 100 |  | - ~ + | mortality at 500 µg/mL [2]: 100%; inhibition at 3.5 ppm [3]: > 90% |
| Cc1cc(Cl)ccc1OCCF [compound 9] |  | 100 |  | inhibition at 3.5 ppm [3]: > 90% |
| FCCOc1ccc(F)cc1 [Compound No. 2] |  | 100 |  |  |
| FCCOc1ccc(OC2C=CCCC2)cc1 (stereo not shown) [compound 38] | 100 |  | - |  |
| Cc1cc(Cl)ccc1N=CN(C)C [B, N'-(4-chloro-2-methylphenyl)-N,N-dimethylformamidine, reference compound] |  |  | + |  |
| CC(C)(c1ccc(OCCF)cc1)c1ccc(OCCF)cc1 [compound 32] | 100 |  |  | inhibition at 3.5 ppm [3, 6]: > 90% |
| O=C(c1ccccc1)c1ccc(OCCF)cc1 [compound 36] | 100 |  | - |  |
| FCCOc1cccc(Oc2ccccc2)c1 [compound 29] | 100 |  |  | mortality at 500 µg/mL [2]: 90% |
| CC(CF)Oc1ccc(Oc2ccccc2)cc1 (stereo not shown) [compound 26] | 100 |  |  | inhibition at 3.5 ppm [3, 6]: > 90% |
| FCCOc1ccc(Sc2ccccc2)cc1 [compound 33] | 100 |  | - | mortality at 500 µg/mL [2]: 100%; inhibition at 3.5 ppm [3]: > 90% |
| FCCOc1ccc2oc3ccccc3c2c1 [Compound No. 35, 2-(2-fluoroethoxy)-dibenzofuran] | 100 |  | - | inhibition at 3.5 ppm [3]: > 90% |
| FCCOc1ccc2c(c1)OCO2 [compound 13] | 100 |  |  |  |
| Cc1ccccc1OCCF [compound 6] |  | 100 |  |  |
| FCCOc1ccccc1 [Compound No. 1] |  | 100 |  |  |
| FCCOc1cccc(Cl)c1 [compound 4] |  | 100 |  |  |
| FCCOc1ccc(COc2ccc(Oc3ccccc3)cc2)cc1 [compound 19] | 100 |  |  | inhibition at 3.5 ppm [3, 6]: > 90% |
| O=C1c2ccccc2-c2ccc(OCCF)cc21 [compound 37] | 100 |  | - ~ + |  |
